pKi: −log10 of the molar value.
How the values were obtained:
[1] = target: Kappa-type opioid receptor (Cavia porcellus, UniProt P41144); test: Displacement of [3H]-U69593 from KOR in guinea pig brain membranes measured by competitive radioligand receptor binding assay; assay type: cell membranes, Membrane
[2] = target: Delta-type opioid receptor (Rattus norvegicus, UniProt P33533); test: Displacement of [3H]-DPDPE from DOR in rat brain membranes measured by competitive radioligand receptor binding assay; assay type: cell membranes, Membrane
[3] = target: T1, Sigma intracellular receptor 2 (Rattus norvegicus, UniProt Q5U3Y7); test: Displacement of [3H]-di-o-tolylguanidine from sigma2 receptor in rat liver membrane measured by competitive radioligand receptor binding assay; assay type: cell membranes
T1 sequence (Q5U3Y7 whole entry): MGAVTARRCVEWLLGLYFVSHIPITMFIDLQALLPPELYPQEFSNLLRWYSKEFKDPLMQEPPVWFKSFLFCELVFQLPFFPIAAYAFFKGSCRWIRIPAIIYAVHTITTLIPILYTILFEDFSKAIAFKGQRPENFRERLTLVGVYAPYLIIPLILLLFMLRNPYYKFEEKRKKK

[4] = target: Sigma non-opioid intracellular receptor 1 (Cavia porcellus, UniProt Q60492); test: Displacement of [3H]-(+)-pentazocine from sigma1 receptor in guinea pig brain membrane measured by competitive radioligand receptor binding assay; assay type: cell membranes
[5] = target: Mu-type opioid receptor (Cavia porcellus, UniProt P97266); test: Displacement of [3H]-DAMGO from MOR in guinea pig brain membranes measured by competitive radioligand receptor binding assay; assay type: cell membranes, Membrane

| Compound | pKi [1] | pKi [2] | pKi [3] | pKi [4] | pKi [5] |
| --- | --- | --- | --- | --- | --- |
| O=C(Cc1ccc(Cl)c(Cl)c1)N1CCCCC1CN1CCCC1 (stereo not drawn) | 9.62 |  |  |  |  |
| O=C(Cc1ccc(Cl)c(Cl)c1)N1CC[C@H]2C[C@@H](N3CCCC3)[C@@H]1C2 | 8.15 | 6.27 | 6.27 | 7.25 |  |
| O=C(Cc1ccc(Cl)c(Cl)c1)N1CCC2CC1[C@H](N1CCCC1)C2 (stereo partly drawn) | 8.15 |  |  |  |  |
| CN(C)[C@@H]1C[C@@H]2CCN(C(=O)Cc3ccc(Cl)c(Cl)c3)[C@H]1C2 | 7.89 |  | 6.09 | 6.53 | < 6.00 |
| O=C(Cc1ccc(Cl)c(Cl)c1)N1CC[C@H]2C[C@@H]1[C@@H](N1CCCC1)C2 | 5.76 |  | 6.77 | 8.00 |  |
| O=C(Cc1ccc(Cl)c(Cl)c1)N1CC[C@@H]2CC[C@H](N3CCCC3)[C@H]1C2 |  |  | 6.31 |  |  |
| O=C(Cc1ccc(Cl)c(Cl)c1)N1CCN2CC[C@@H](N3CCCC3)C1C2 (stereo partly drawn) | 7.14 |  |  |  |  |
| O=C(Cc1ccc(Cl)c(Cl)c1)N1CCC2CC1[C@@H](N1CCCC1)C2 (stereo partly drawn) | 6.06 |  |  |  |  |
| O=C(Cc1ccc(Cl)c(Cl)c1)N1CC[C@H]2CC[C@@H](N3CCCC3)[C@@H]1C2 |  |  | 6.81 |  |  |
| CN(C)[C@H]1C[C@H]2CCN(C(=O)Cc3ccc(Cl)c(Cl)c3)[C@@H]1C2 | 6.27 |  | 6.67 | 7.77 |  |
| O=C(Cc1ccc(Cl)c(Cl)c1)N1CCN2CC[C@H](N3CCCC3)C1C2 (stereo partly drawn) | < 6.00 |  |  |  |  |
| COC(=O)N1CCN(C(=O)Cc2ccc(Cl)c(Cl)c2)[C@H](CN2CCCC2)C1 | 9.34 |  |  |  |  |
| CN(C)[C@@H]1CCC2CCN(C(=O)Cc3ccc(Cl)c(Cl)c3)C1C2 (mixture of isomers) |  |  | 6.22 |  |  |

Reference: ChEMBL document CHEMBL5154699 (Eur J Med Chem, 2022)
